According to patent US10093675B2, “6,8-disubstituted-9-(heterocyclyl)purines, compositions containing these derivatives and their use in cosmetic and medicinal applications” (USTAV EXPERIMENTALNI BOTANIKY AV CR, V.V.I., priority 2014, dated 2018):
pIC50: −log10 of the molar value.

Columns and labels:
[1] = system: T-lymphoblastic leukemia cell line CEM; assay: In vitro cytotoxic activity (Calcein AM), CEM; format: cell-based, human; settings: 72 hours, read-out: Cell line tested/IC50 (μmol/L) CEM
Description: (§1) Because toxic compounds negatively influence metabolic processes of cells, many standard cytotoxicity assays are based on measurement of metabolisation rate of various artificial substrates. Resulting product is then quantified, for example, by means of spectrometry. The assays can be easily modified for use in 96-well plates. For evaluation of cytotoxicity of the […] of this invention, a microtiter assay based on quantification of metabolisation of Calcein AM was used. The assay is widely used in drug screening programs and in chemosensitivity testing. In live cells, Calcein AM is enzymatically hydrolysed and accumulation of resulting calcein is manifested by green fluorescence.
(§2) The following human cell lines were used for routine screening of the compounds: normal diploid fibroblasts BJ, T-lymphoblastic leukemia cell line CEM, promyelocytic leukemia cell line HL-60, erytroid leukemia cell line K-562, breast carcinoma cell line MCF-7, osteosarcoma cell line HOS and melanoma cell line G-361. The cells were maintained in Nunc/Corning 80 cm^2 plastic tissue culture flasks and cultured in cell culture medium (DMEM with 5 g/l glucose, 2 mM glutamine, 100 U/ml penicillin, 100 mmg/ml streptomycin, 10% fetal calf serum and sodium bicarbonate). The cell suspensions were prepared and diluted according to the particular cell type and the expected target cell density (2.500-30.000 cells per well based on cell growth characteristics) and pipetted (80 μl) into 96-well plates. Inoculates were allowed a pre-incubation period of 24 hours at 37° C. and 5% CO2 for stabilization. Tested compound was added in total volume of 20 μl of water at time zero. Usually, test compound was evaluated at six 3-fold dilutions. In routine testing, the highest concentration tested was 100 μM, but it could have been adjusted because of limited solubility of a compound. All drug concentrations were tested in triplicates.
(§3) Incubations of cells with the test compounds lasted for 72 hours at 37° C., in 5% CO2 atmosphere and 100% humidity. At the end of incubation period Calcein AM in PBS was added into final concentration of 1 μg/ml. After another 1 hour of incubation fluorescence (FD) was measured with the Labsystem FIA Reader Fluoroscan Ascent (UK). Growth inhibition (GI) was estimated using the following equitation: GI=(mean FDdrug exposed wells−mean FDblank)/(mean FDcontrol wells−mean FDblank)×100%. The GI50 value, the drug concentration causing 50% reduction of Calcein AM conversion, was calculated from the obtained dose response curves.

[2] = system: osteosarcoma cell line HOS; assay: In vitro cytotoxic activity (Calcein AM), HOS; format: cell-based, human; settings: 72 hours, read-out: Cell line tested/IC50 (μmol/L) HOS
Description: as §1, §2, §3

[3] = system: excised wheat leaf tips (Triticum aestivum cv. Hereward); assay: Senescence inhibition on winter wheat leaf segments (retention of chlorophyll); format: in vivo; settings: 10^−4 mol/L; 96 hours in the dark; activity of kinetin set at 100%
Protocol: (§4) Seeds of winter wheat, Triticum aestivum cv. Hereward, were washed under running water for 24 hours and then sown on vermiculite soaked with Knop's solution. They were placed in the grown chamber at 25° C. with a 16/8 hours light period at […]. After 7 days, the first leaf was fully developed and the second leaf had started to grow. A tip section of the first leaf, approximately 35 mm long, was removed from 5 seedlings and trimmed slightly to a combined weight of 100 mg. The basal ends of the five leaf tips were placed in the wells of a microtiter polystyrene plate containing […] of a cytokinin solution each. The entire plate was inserted into a plastic box lined with paper tissues soaked in distilled water to prevent leaf sections from drying out. After 96 hours incubation in the dark at 25° C., the leaves were removed and chlorophyll extracted by heating at 80 C for 10 min in 5 ml of 80% ethanol (v/v). The sample volume was then restored to 5 ml by the addition of 80% ethanol (v/v). The absorbance of the extract was recorded at 665 nm. In addition, chlorophyll extracts from fresh leaves and leaf tips incubated in deionized water were measured. From the obtained data, the concentration with highest activity was selected for each compound tested. Relative activity of the compound at this concentration was calculated (see Table 6 below). The activity obtained for 10^−4 M kinetin (Kin) was set as 100%. The values shown are means of five replicates and the whole experiment was repeated twice.
The compounds to be tested were dissolved in dimethylsulfoxide (DMSO) and the solution brought up to 10^−3 M with distilled water. […] As summarized in Table 6 below, the presence of C-8 substitutent was beneficial and led to increase of antisenescent properties.

[4] = system: cytokinin-dependent tobacco callus Nicotiana tabacum L. cv. Wisconsin 38; assay: Plant cell division: growth of cytokinin-dependent tobacco callus; format: cell-based; settings: for Activity (%); (s.d.): relative activity at concentration with highest activity, 10^−6 M kinetin set at 100%; for Concentration with highest activity (mol/l): tobacco callus fresh weight increase after four weeks, tested 10^−8 M to 10^−4 M
Protocol: Cytokinin-dependent tobacco callus Nicotiana tabacum L. cv. Wisconsin 38 was maintained at 25° C. in darkness on modified MS medium, containing 4 μmol/l nicotinic acid, 2.4 μmol/l pyridoxine hydrochloride, 1.2 μmol/l thiamine, 26.6 μmol/l glycine, 1.37 μmol/l glutamine, 1.8 μmol/l myo-inositol, 30 g/l of sucrose, 8 g/l of agar, 5.37 μmol/l NAA and 0.5 μmol/l BAP. Subcultivation was carried out every three weeks. Fourteen days before the bioassay, the callus tissue was transferred to the media without BAP. Biological activity was determined from the increase in fresh callus weight after four weeks of cultivation. Five replicates were prepared for each cytokinin concentration and the entire test was repeated twice. From the obtained data, the concentration with highest activity was selected for each compound tested. Relative activity at this concentration was calculated (see Table 17 below). The activity obtained for 10^−6 M kinetin (Kin) was set as 100%.
The cytokinins to be tested were dissolved in dimethylsulfoxide (DMSO) and the solution brought up to 10^−3M with distilled water.

[5] = system: normal diploid fibroblasts BJ; assay: In vitro cytotoxic activity (Calcein AM), BJ; format: cell-based, human; settings: 72 hours, read-out: Cell line tested/IC50 (μmol/L) BJ
Description: as §1, §2, §3

[6] = system: melanoma cell line G-361; assay: In vitro cytotoxic activity (Calcein AM), G-361; format: cell-based, human; settings: 72 hours, read-out: Cell line tested/IC50 (μmol/L) G-361
Description: as §1, §2, §3

[7] = system: erytroid leukemia cell line K-562; assay: In vitro cytotoxic activity (Calcein AM), K-562; format: cell-based, human; settings: 72 hours, read-out: Cell line tested/IC50 (μmol/L) K-562
Description: as §1, §2, §3

[8] = system: Human diploid fibroblast BJ; assay: In vitro cytotoxic activity (MTT); format: cell-based; settings: 72 hours incubation; concentration causing 20% decrease in mitochondrial dehydrogenase activity
Protocol: MTT (metabolic tetrazolium toxicity) assay is a standard colorimetric assay for evaluation of cytotoxicity. Mitochondrial dehydrogenase activity converts yellow MTT into violet formazan which is measured by means of spectrometry.
Human diploid fibroblast BJ (passage 18-22) were seeded into 96-well plate (5.000 cells per well). After 6 hours cultivation medium (DMEM with 5 g/l glucose, 2 mM glutamine, 100 U/ml penicillin, 100 mmg/ml streptomycin, 10% fetal calf serum and sodium bicarbonate) was replaced with the cultivation medium containing test compounds in concentration range of 0-200 µM. Highest concentration was adjusted if the solubility of the compound was limiting. Every concentration was tested in pentaplicate. MTT was added to the cells after 72 hours incubation (final concentration 0.5 mg/ml) and incubation continued for another 3 hours. MTT was solubilised by DMSO and absorbance at 570 nm was measured. Growth inhibition (GI) was estimated using the following equitation: GI=(mean A drug exposed wells−mean Ablank/mean Acontrol wells−mean Ablank)×100%. The GI20 value, the drug concentration causing 20% decrease in mitochondrial dehydrogenase activity, was calculated from the obtained dose response curves.

[9] = system: breast carcinoma cell line MCF-7; assay: In vitro cytotoxic activity (Calcein AM), MCF-7; format: cell-based, human; settings: 72 hours, read-out: Cell line tested/IC50 (μmol/L) MCF7
Description: as §1, §2, §3

[10] = system: Salmonella typhimurium histidien auxotrophs TA98 and TA100; assay: Ames test; format: cell-based; settings: 2.5 to 5000 μg/plate; presence and absence of Aroclor-induced rat liver S9
Summary of the method: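 Strains TA98 and TA100 exposed to compounds in DMSO at 2.5, 5.0, 15, 50, 500, 1500 and 5000 μg/plate following standard Ames/Maron protocols.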

[11] = system: detached leaves of Triticum aestivum cv. Hereward; assay: Membrane lipid peroxidation (MDA, TBA method) in detached wheat leaves during dark senescence; format: in vivo; settings: four days in the dark, Control 18.9 (±2.2)
Protocol: A typical symptom associated with senescence as a direct consequence of increased reactive oxygen species is lipid peroxidation. Therefore the levels of MDA, a decomposition product of lipid peroxidation, were measured in detached wheat leaves that were exposed to the prepared novel derivatives and kinetin for four days in the dark as described in Example 8. MDA levels were measured using a thiobarbituric acid (TBA) method. In detail, 100 mg of fresh plant material was homogenized by high speed shaking in a ball mill (MM301, Retsch, Germany) with 1 mL of 80% methanol. The crude extract was centrifuged at 10,000×g for 5 min, and 100 μL aliquot of supernatant was vortexed with 100 μL of 0.5% (w/v) TBA containing 0.1% (w/v) trichloroacetic acid, and the resulting solution was then incubated for 30 min at 95° C. The samples were quickly cooled on ice and recentrifuged for 5 min at 1000×g. The absorbance of supernatant was measured at 532 nm with background subtraction at 600 nm and the amount of MDA-TBA complex was calculated from the coefficient of absorbance 155 mM^−1cm^−1.
as §4

SMILES	pIC50 [1]	pIC50 [2]	Activity (%) (s.d.), retention of chlorophyll [3]	Activity (%); (s.d.) [4]	Concentration with highest activity (mol/l) [4]	pIC50 [5]	pIC50 [6]	pIC50 [7]	GI20 [8] [µM]	pIC50 [9]	mutagenic response [10]	MDA (nmol/g FW) [11]
Fc1cccc(CNc2ncnc3c2nc(Cl)n3C2CCCCO2)c1 (stereo not shown) [Compound 7]	< 4.00	< 4.00	110 (±2) %	114 (±5) %	10^−6-10^−4 mol/l	< 4.00	< 4.00	< 4.30	>200	< 4.00		
COc1cccc(CNc2ncnc3c2nc(Cl)n3C2CCCCO2)c1 (stereo not shown) [Compound 8]	< 4.00	< 4.00	125 (±6) %	119 (±7) %	10^−6-10^−4 mol/l	< 4.00	< 4.00	< 4.00	>200	< 4.00		
COc1cccc(CNc2ncnc3c2nc(Br)n3C2CCCCO2)c1 (stereo not shown) [Compound 28]	< 4.30	< 4.30	126 (±7) %	107 (±2) %	10^−6-10^−4 mol/l	< 4.30	< 4.30	< 4.30	>100	< 4.30		
CSc1nc2c(NCc3cccc(O)c3)ncnc2n1C1CCCCO1 (stereo not shown) [Compound 149]	< 4.30	< 4.30		107 (±1) %	10^−6-10^−4 mol/l	< 4.30	< 4.30	< 4.30	>100	< 4.30	no positive mutagenic responses	
COc1cccc(CNc2ncnc3c2nc(SC)n3C2CCCCO2)c1 (stereo not shown) [Compound 150]	< 4.30	< 4.30		105 (±2) %	10^−6-10^−5 mol/l	< 4.30	< 4.30	< 4.30	>100	< 4.30	no positive mutagenic responses	
CSc1nc2c(NCc3cccc(F)c3)ncnc2n1C1CCCCO1 (stereo not shown) [Compound 151]	< 4.30	< 4.30		109 (±5) %	10^−6-10^−4 mol/l	< 4.30	< 4.30	< 4.30	>100	< 4.30	no positive mutagenic responses	
COc1nc2c(NCc3ccco3)ncnc2n1C1CCCO1 (stereo not shown) [Compound 206]	< 4.30	< 4.30		110 (±3) %	10^−6-10^−4 mol/l	< 4.30	< 4.30	< 4.30	>100	< 4.30		10.5 (±0.4) nmol/g FW
COc1nc2c(NCC=C(C)CO)ncnc2n1C1CCCO1 (stereo not shown) [Compound 208]	< 4.30	< 4.30		119 (±7) %	10^−6-10^−4 mol/l	< 4.30	< 4.30	< 4.30	>100	< 4.30	no positive mutagenic responses	
CSc1nc2c(NCc3ccco3)ncnc2n1C1CCCO1 (stereo not shown) [Compound 216]	< 4.30	< 4.30		103 (±4) %	10^−6-10^−4 mol/l	< 4.30	< 4.30	< 4.30	>100	< 4.30	no positive mutagenic responses	
CSc1nc2c(NCC=C(C)C)ncnc2n1C1CCCO1 (stereo not shown) [Compound 218]	< 4.30	< 4.30		113 (±5) %	10^−6-10^−4 mol/l	< 4.30	< 4.30	< 4.30	>100	< 4.30	no positive mutagenic responses	
